hNE/PPE selectivity, IC50 and hNE/hPr3 selectivity data for 11 compounds are collected here from patent US10273267B2, “Beta-hairpin peptidomimetics as selective elastase inhibitors” (POLYPHOR AG, priority 2013, dated 2019).

The pIC50 is −log10 of the IC50, conventionally taken in molar units.

What all share (format): biochemical
Assay [1] has as its target T1, porcine pancreatic elastase (Sus scrofa, UniProt P00772).
T1 construct: purchased Sigma, USA
Nature of the assay: Inhibition of porcine pancreatic elastase (hydrolysis of MeOSuc-AAA-pNA). To be noted: for hNE/PPE selectivity: ratio of PPE IC50 to hNE IC50; for pIC50: substrate MeOSuc-AAA-pNA 1 mM, enzyme 15 nM, 37° C., pH8, read-out: Porcine pancreatic elastase (PPE) IC50. The gist of the method: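 Elastase (15 nM) incubated at 37 °C with 1 mM MeOSuc-AAA-pNA and serially diluted peptides (0.5% DMSO) in 50 mM Tris pH 8, 100 mM NaCl, 0.01% Tween20. pNA release read at 405 nm over 30 min; IC50 from 4-parameter Hill fit.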

The next assay concerns the target T2, human proteinase 3 (Homo sapiens, UniProt P24158).
T2 construct: purchased Elastin Products Company, USA
T2 sequence (P24158 28-248): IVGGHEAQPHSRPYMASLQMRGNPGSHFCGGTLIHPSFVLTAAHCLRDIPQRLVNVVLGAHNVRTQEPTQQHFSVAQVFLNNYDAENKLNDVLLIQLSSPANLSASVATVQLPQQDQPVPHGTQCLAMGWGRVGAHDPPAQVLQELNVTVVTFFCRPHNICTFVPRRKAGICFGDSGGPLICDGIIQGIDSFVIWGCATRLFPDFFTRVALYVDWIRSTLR
Nature of the assay: Inhibition of human proteinase 3 (substrate Boc-Ala-Ala-Nva-SBzl). The conditions noted are these: for hNE/hPr3 selectivity: ratio of hPr3 IC50 to hNE IC50; for pIC50: substrate Boc-Ala-Ala-Nva-SBzl 1 mM, enzyme 10 nM, 37° C., pH7.4, read-out: Human proteinase 3 (hPr3) IC50. The gist of the method: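 Enzyme at 10 nM incubated at 37°C with 1 mM thiobenzyl ester substrate, 250 μM 4,4′-dithiodipyridine and serial peptide dilutions (0.5% DMSO) in Tris pH 7.4, 150 mM NaCl, 0.01% Tween20. Absorbance at 340 nm followed over 30 min; IC50 from 4-parameter Hill fit.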

Assay [2] deals with T3, human neutrophil elastase (Homo sapiens, UniProt P08246).
T3 construct: purchased Serva Electrophoresis, Germany
T3 sequence (P08246 30-267): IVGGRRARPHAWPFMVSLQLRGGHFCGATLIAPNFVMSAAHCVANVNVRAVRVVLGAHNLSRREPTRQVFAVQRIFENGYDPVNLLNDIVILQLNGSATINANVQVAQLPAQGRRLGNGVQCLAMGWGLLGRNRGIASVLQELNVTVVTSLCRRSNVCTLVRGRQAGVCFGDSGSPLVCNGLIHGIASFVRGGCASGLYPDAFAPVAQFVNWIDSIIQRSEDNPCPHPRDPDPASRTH
In words: Inhibition of human neutrophil elastase (hydrolysis of MeOSuc-AAPV-pNA). To be noted: substrate MeOSuc-AAPV-pNA 0.3 mM, enzyme 10 nM, 37° C., pH 8; read-out: Human neutrophil elastase (hNE) IC50. The gist of the method: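 MeOSuc-AAPV-pNA (0.3 mM) hydrolysis by 10 nM enzyme at 37° C with serially diluted peptides (1% DMSO) in 50 mM Tris pH 8, 300 mM NaCl, 0.01% Tween20. pNA release read at 405 nm over 30 minutes; IC50 from 4-parameter Hill fit.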

pIC50: −log10 of the molar value. *1 amine or outer side, *2 acyl side, *3 side chain or, on linkers, in order; H or OH if unused. Where a SMILES comes first, the peptide text is derived from it. [ ]: non-standard residue; d: D form. Oic = O=C(O)[C@@H]1C[C@@H]2CCCC[C@@H]2N1; X1 = NCCCC[C@@H](CCC(=O)[*:2])N[*:1]; Gly(octyl) = CCCCCCCC[C@H](N)C(=O)O; hTyr = N[C@@H](CCc1ccc(O)cc1)C(=O)O; aThr = C[C@H](O)[C@H](N)C(=O)O; AllylGly = C=CC[C@H](N)C(=O)O; Pip = O=C(O)[C@@H]1CCCCN1

T1 sequence (P00772 27-266): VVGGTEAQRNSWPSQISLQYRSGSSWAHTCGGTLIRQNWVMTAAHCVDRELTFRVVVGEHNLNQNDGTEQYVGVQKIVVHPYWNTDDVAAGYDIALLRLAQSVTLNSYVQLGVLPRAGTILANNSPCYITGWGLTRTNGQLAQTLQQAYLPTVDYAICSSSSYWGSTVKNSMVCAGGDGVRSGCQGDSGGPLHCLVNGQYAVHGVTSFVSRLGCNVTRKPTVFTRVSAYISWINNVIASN

On to `CCCCCCCC[C@@H]1NC(=O)[C@@H]2CCCN2C(=O)[C@H]2CCCN2C(=O)[C@H]([C@@H](C)O)NC(=O)[C@H](CCCCN)NC(=O)[C@H](CCC(N)=O)NC(=O)[C@@H]2CCCCN2C(=O)[C@@H]2CCCN2C(=O)[C@H]([C@@H](C)CC)NC(=O)[C@H](CO)NC(=O)[C@H](C)NC(=O)[C@H]([C@@H](C)O)NC(=O)[C@H](CCC(=O)O)NC1=O` [Example 45, Cyclo(-OctGly-Glu-Thr-Ala-Ser-Ile-Pro-Pip-Gln-Lys-Thr-^DPro-Pro-)] (cyclo([Gly(octyl)]ETASIP[Pip]QKT[dP]P)), for which the hNE/PPE selectivity in assay [1] amounted to 324. Also, the values for the pIC50 (in assay [1]; on human proteinase 3; in assay [2]) were 5.64, 6.05 and 8.15, respectively. For the same compound, the hNE/hPr3 selectivity at human proteinase 3 stood at 127.
On to `CC[C@H](C)[C@@H]1NC(=O)[C@H](CO)NC(=O)[C@H](C)NC(=O)[C@H]([C@@H](C)O)NC(=O)[C@H](CCc2ccc(O)cc2)NC(=O)[C@H](CCCNC(=N)N)NC(=O)[C@H](CCC(=O)O)NC(=O)[C@H]2CCCN2C(=O)[C@H]([C@@H](C)O)NC(=O)[C@H](CCCCN)NC(=O)[C@H](CCC(N)=O)NC(=O)[C@@H]2C[C@@H]3CCCC[C@@H]3N2C(=O)[C@@H]2CCCN2C1=O` [Example 43, Cyclo(-Arg-hTyr-Thr-Ala-Ser-Ile-Pro-Oic-Gln-Lys-Thr-^DPro-Glu-)] (cyclo(R[hTyr]TASIP[Oic]QKT[dP]E)), for which, in assay [1], the hNE/PPE selectivity is above 237037 and the pIC50 was below 4.00. For the same compound, on human proteinase 3, the hNE/hPr3 selectivity is reported as above 237037 and the pIC50 was below 4.00. Further, in assay [2], the pIC50 was 8.57.
Turning to `CCCCCCCC[C@@H]1NC(=O)[C@H]2CCCN2C(=O)[C@H]2CCCN2C(=O)[C@H]([C@@H](C)O)NC(=O)[C@H](CCCCN)NC(=O)[C@H](CCC(N)=O)NC(=O)[C@@H]2CCCN2C(=O)[C@@H]2CCCN2C(=O)[C@H]([C@@H](C)CC)NC(=O)[C@H](CO)NC(=O)[C@H](C)NC(=O)[C@H]([C@@H](C)O)NC(=O)[C@H](CCC(=O)O)NC1=O` [Example 12, Cyclo(-OctGly-Glu-Thr-Ala-Ser-Ile-Pro-Pro-GI n-Lys-Thr-^DPro-^DPro-)] (cyclo([Gly(octyl)]ETASIPPQKT[dP][dP])), in assay [1], the hNE/PPE selectivity is given as above 6579 and the pIC50 was below 4.00. For the same compound, on human proteinase 3, the hNE/hPr3 selectivity is recorded as above 6579 and the pIC50 is below 4.00. Also, in assay [2], the pIC50 is 7.82.
`CC[C@H](C)[C@@H]1NC(=O)[C@H](CO)NC(=O)[C@H](C)NC(=O)[C@H]([C@@H](C)O)NC(=O)[C@H](CCC(=O)O)NC(=O)[C@H](CCCNC(=N)N)NC(=O)[C@@H]2CCCN2C(=O)[C@H]2CCCN2C(=O)[C@H]([C@@H](C)O)NC(=O)[C@H](CCCCN)NC(=O)[C@H](CCC(N)=O)NC(=O)[C@@H]2C[C@@H]3CCCC[C@@H]3N2C(=O)[C@@H]2CCCN2C1=O` [Example 16, Cyclo(-Arg-Glu-Thr-Ala-Ser-Ile-Pro-Oic-Gln-Lys-Thr-^DPro-Pro-)] (cyclo(RETASIP[Oic]QKT[dP]P)): in assay [1], the hNE/PPE selectivity is reported as above 6667 and the pIC50 is below 4.00. Besides, at human proteinase 3, the hNE/hPr3 selectivity is above 6667 and the pIC50 was below 4.00. Moreover, the pIC50 in assay [2] was 7.82.
In the case of `CCCCCCCC[C@@H]1NC(=O)[C@@H]2CCCN2C(=O)[C@H]2CCCN2C(=O)[C@H]([C@@H](C)O)NC(=O)CC[C@H](CCCCN)NC(=O)[C@H](CCC(N)=O)NC(=O)[C@@H]2CCCN2C(=O)[C@@H]2CCCN2C(=O)[C@H]([C@@H](C)CC)NC(=O)[C@H](CO)NC(=O)[C@H](C)NC(=O)[C@H]([C@@H](C)O)NC(=O)[C@H](CCC(=O)O)NC1=O` [Example 38, Cyclo(-OctGly-Glu-Thr-Ala-Ser-Ile-Pro-Pro-Gln-[H-γ^4-DiHLys-OH]-Thr-^DPro-Pro-)] (cyclo([Gly(octyl)]ETASIPPQ[X1]T[dP]P)), in assay [1], the hNE/PPE selectivity worked out at 535 and the pIC50 was 5.04. At human proteinase 3, the hNE/hPr3 selectivity was found to be 535 and the pIC50 was 5.04. Besides, the pIC50 in assay [2] was 7.76.
Turning to `CCCCCCCC[C@@H]1NC(=O)[C@@H](CCC(=O)O)NC(=O)[C@H]2CCCN2C(=O)[C@H]([C@@H](C)O)NC(=O)[C@H](CCCCN)NC(=O)[C@H](CCC(N)=O)NC(=O)[C@@H]2CCCN2C(=O)[C@@H]2CCCN2C(=O)[C@H]([C@@H](C)CC)NC(=O)[C@H](CO)NC(=O)[C@H](C)NC(=O)[C@H]([C@@H](C)O)NC(=O)[C@H](CCC(=O)O)NC1=O` [Example 40, Cyclo(-OctGly-Glu-Thr-Ala-Ser-Ile-Pro-Pro-Gln-Lys-Thr-^DPro-^DGlu-)] (cyclo([Gly(octyl)]ETASIPPQKT[dP][dE])), in assay [1], the hNE/PPE selectivity is given as above 76923 and the pIC50 is below 4.00. At human proteinase 3, the hNE/hPr3 selectivity is recorded as above 76923 and the pIC50 is below 4.00. Moreover, the pIC50 in assay [2] is 8.89.
For the compound `C=CC[C@@H]1NC(=O)[C@H]([C@@H](C)O)NC(=O)[C@H](CCC(=O)O)NC(=O)[C@H](CCC(=O)N[C@@H](Cc2ccccc2)C(=O)O)NC(=O)[C@@H]2CCCN2C(=O)[C@H]2CCCN2C(=O)[C@H](Cc2ccc(O)cc2)NC(=O)[C@H](CCCCN)NC(=O)[C@H](CCC(N)=O)NC(=O)[C@@H]2CCCN2C(=O)[C@@H]2CCCN2C(=O)[C@H]([C@@H](C)CC)NC(=O)[C@H](CO)NC1=O` [Example 17, Cyclo(-Glu(Phe)-Glu-Thr-AllylGly-Ser-Ile-Pro-Pro-Gln-Lys-Tyr-^DPro-Pro-)] (cyclo(E(Phe)ET[AllylGly]SIPPQKY[dP]P)), the hNE/PPE selectivity in assay [1] is 2080. The pIC50 was 4.51 in assay [1], 4.22 at human proteinase 3 and 7.82 in assay [2]. In addition, the hNE/hPr3 selectivity on human proteinase 3 worked out at 4013.
Take `CCCCCCCC[C@@H]1NC(=O)[C@@H]2CCCN2C(=O)[C@H]2CCCN2C(=O)[C@H](CC(N)=O)NC(=O)[C@H](CCCCN)NC(=O)[C@H](CCC(N)=O)NC(=O)[C@@H]2CCCN2C(=O)[C@@H]2CCCN2C(=O)[C@H]([C@@H](C)CC)NC(=O)[C@H](CO)NC(=O)[C@H](C)NC(=O)[C@H]([C@@H](C)O)NC(=O)[C@H](CCc2ccc(O)cc2)NC1=O` [Example 48] (cyclo([Gly(octyl)][hTyr]TASIPPQKN[dP]P)): in assay [1], the hNE/PPE selectivity turned out to be 148 and the negative logarithm of the IC50 (pIC50) is 6.40. Besides, on human proteinase 3, the hNE/hPr3 selectivity amounted to 407 and the pIC50 is 5.96. For the same compound, in assay [2], the pIC50 is 8.57.
Consider `CCCCCCCC[C@@H]1NC(=O)[C@@H]2CCCN2C(=O)[C@H]2CCCN2C(=O)[C@H]([C@H](C)O)NC(=O)[C@H](CCCCN)NC(=O)[C@H](CCC(N)=O)NC(=O)[C@@H]2CCCN2C(=O)[C@@H]2CCCN2C(=O)[C@H]([C@@H](C)CC)NC(=O)[C@H](CO)NC(=O)[C@H](C)NC(=O)[C@H]([C@@H](C)O)NC(=O)[C@H](CCC(=O)O)NC1=O` [Example 3, Cyclo(-OctGly-Glu-Thr-Ala-Ser-Ile-Pro-Pro-Gln-Lys-alloThr-^DPro-Pro-)] (cyclo([Gly(octyl)]ETASIPPQK[aThr][dP]P)), for which, in assay [1], the hNE/PPE selectivity was determined as 209 and the pIC50 was 5.85. At human proteinase 3, the hNE/hPr3 selectivity is reported as 149 and the pIC50 was 6.00. Further, the pIC50 in assay [2] is 8.17.
Regarding `CCCCCCCC[C@@H]1NC(=O)[C@H](Cc2ccc(O)cc2)NC(=O)[C@@H](CCCCN)NC(=O)[C@H]([C@@H](C)O)NC(=O)[C@H](CCCCN)NC(=O)[C@H](CCC(N)=O)NC(=O)[C@@H]2CCCN2C(=O)[C@@H]2CCCN2C(=O)[C@H]([C@@H](C)CC)NC(=O)[C@H](CO)NC(=O)[C@H](C)NC(=O)[C@H]([C@@H](C)O)NC(=O)[C@H](CCC(=O)O)NC1=O` [Example 27, Cyclo(-OctGly-Glu-Thr-Ala-Ser-Ile-Pro-Pro-GI n-Lys-Thr-^DLys-Tyr-)] (cyclo([Gly(octyl)]ETASIPPQKT[dK]Y)), in assay [1], the hNE/PPE selectivity is 4366 and the pIC50 was 4.36. Besides, on human proteinase 3, the hNE/hPr3 selectivity is given as 3921 and the pIC50 is 4.40. In addition, in assay [2], the pIC50 was 8.00.
In the same order, the values of `CC[C@H](C)[C@@H]1NC(=O)[C@H](CO)NC(=O)[C@H](C)NC(=O)[C@H]([C@@H](C)O)NC(=O)[C@H](CCc2ccc(O)cc2)NC(=O)[C@H](CCCNC(=N)N)NC(=O)[C@H](CCC(=O)O)NC(=O)[C@H]2CCCN2C(=O)[C@H]([C@@H](C)O)NC(=O)[C@H](CCCCN)NC(=O)[C@H](CCC(N)=O)NC(=O)[C@@H]2CCCN2C(=O)[C@@H]2CCCN2C1=O` [Example 49] (cyclo(R[hTyr]TASIPPQKT[dP]E)) are 2490, 4.42, 627, 5.02 and 7.82.
